{"source": "patent US10464885B2", "about": "“Compound, preparation method therefor, applications thereof, corresponding targeted drug delivery system, chemotherapy drugs, and treatment method” (BEIJING XINDE RUNXING TECHNOLOGY CO., LTD., priority 2015, dated 2019)", "key": {"[1]": {"test_system": "small cell lung cancer cell line H446", "test": "Cell viability CCK-8 assay, H446", "type": "cell-based", "details": "48 h after dosing", "from_the_text": "Test cell line: small cell lung cancer cell line H446 (purchased from Shanghai Beinuo Life Science Co., Ltd.)\nCell viability CCK-8 assay: CCK8 assay, with a reagent containing 2-(2-methoxy-4-nitrophenyl)-3-(4-nitrophenyl)-5-(2,4-disulfophenyl)-2H-tetrazole monosodium salt (WST-8), is reduced by dehydrogenase in the cells in the presence of electron carrier 1-methoxy-5-methylphenazinium […] (1-Methoxy PMS), to obtain a highly water-soluble yellow formazan product (Formazan), and the count of viable cells is positively associated with the amount of obtained formazan product. Thus, CCK8 assay can be directly used for the evaluation of cell proliferation and toxicity analysis.\nEach well of 96-well plate was loaded at an amount of 7×10^3 cells/well. After 24 h plating, 200 μl of solution was supplied to each well. NIC-1, vp-16 and blank were applied to the plate in four concentrations: concentration 1=1.528 μm, concentration 2=1.528 μm*2, concentration 3=1.528 μm*5, concentration 4=1.528 μm*10, wand each group was made in triplicate.\nThe plate was harvested 48 h after dosing, by:\ndiscarding 200 μl solution in each well, adding 100 μl solution (90 μl medium+10 μl CCK8 stock solution) to each well, placing the plate in a 37° C. incubator for about 1 hour, and measuring a value of OD at 450 nm using a microplate reader.\nThe small cell lung cancer cell line H446 was treated with NIC-1 and etoposide (vp16) for […] respectively, and then the cell viability was detected by CCK-8 assay.\nThe synthesized compound NIC-1 of the present invention in the concentrations of 1.528 μM, 3.056 μM, 7.64 μM and 15.28 μM was compared with etoposide (vp16) and blank control, respectively. As shown in FIGS. 5-8, a chart of comparison of the inhibitory effect on the cell viability of small cell lung cancer cell line H446 was shown in each figure, wherein the horizontal axis represented the blank control, NIC-1, vp-16 and corresponding dosage concentrations, and the vertical axis represented measured OD values."}, "[2]": {"test_system": "small cell lung cancer cell line H446", "test": "H446 cell colony in vitro formation assay (crystal violet staining)", "type": "cell-based", "details": "Day 7 (one week)", "protocol": "Test cell line: small cell lung cancer cell line H446 (purchased from Shanghai Beinuo Life Science Co., Ltd.) Experimental method: H446 cell colony in vitro formation assay\nDetection method: crystal violet staining\nOn Day 1, a 6-well plate (Transwell, batch No. 3428, manufactured by Corning Incorporated) was adopted as cell plate, with 2000 cells/well per plate.\nOn Day 2, after microscopic observation of cell adherence, a 1 ml medium containing the drug was loaded to each well, with settings of 2 wells in one group and totally three groups: A. 6 μmol/L, a. 6 μmol/L (multiple wells); B. blank (no drug); b. blank (no drug, multiple wells); C. 12 μmol/L; c. 12 μmol/L (multiple wells); the drugs were changed every three days, and the observation was performed every day.\nOn Day 7, cell colonies were visually observed at the bottom of the vessel, and the cells were collected by: discarding the culture medium in each well, washing cells with phosphate buffered saline (PBS) twice for 5 minutes each time, adding 500 μl crystal violet stain solution to each well for staining at room temperature for 15 minutes, washing cells with PBS twice for 5 minutes each time, and finally detecting on a WB analyzer."}, "[3]": {"test_system": "Jurkat cell line", "test": "Cell viability CCK-8 assay, Jurkat cell suspension", "type": "cell-based", "details": "six concentrations 0.041 μM-10 μM; 24 h, 48 h and 72 h; OD at 450 nm", "protocol": "Test cell line: Jurkat cell line (purchased from Nanjing Cobioer Co., Ltd.)\nExperimental method: Cell viability CCK-8 assay\nExperimental design: within a dose concentration range of 0.041 μM-10 μM, six concentrations were designed with three-fold increments, including 0.041 μM, 0.123 μM, 0.367 μM, 1.1 μM, 3.3 μM and 10 μM.\n1. A Jurkat cell suspension was prepared and inoculated to the 96-well plate at an amount of 5×10^4/well.\n2. The Jurkat cell suspension was directly added to different concentrations of NIC-1 and control drug N-(2-chloro-4-nitrophenyl)-5-chloro-2-hydroxybenzamide, followed by culture in an incubator at 37° C. for 24 h, 48 h and 72 h respectively; CCK8 was measured by adding CCK8 to each well at an amount of 10 μl/well, culturing for 2-3 h and detecting a value of OD at 450 nm using a microplate reader.\nExperimental results: the outcomes of the synthesized compound NIC-1 of the present invention and the control drug N-(2-chloro-4-nitrophenyl)-5-chloro-2-hydroxybenzamide in the six concentrations were compared with those of the blank control, respectively. […]"}, "[4]": {"test": "Solubility in solvents (experimental results)", "type": "physicochemical", "from_the_text": "The molecular weight is 367.9967."}, "[5]": {"test_system": "patients with relapsed SCLC", "details": "cited from earlier work"}, "[6]": {"test_system": "human body", "details": "oral treatment of taeniasis, adults and children; cited from earlier work"}, "[7]": {"details": "oral, Day 1, 8 and 15 of 28 days"}}}
{"smiles": "CC(=O)Oc1ccc(Cl)cc1C(=O)Nc1ccc([N+](=O)[O-])cc1Cl", "note": "[NIC-1, N-(2-chloro-4-nitrophenyl)-5-chloro-2-acetoxybenzamide]", "values": [{"measurement": "inhibitory effect on cell viability of H446 compared with etoposide (vp16)", "setting": "[1]; 1.528 μM", "result": "slightly better than etoposide (vp16)"}, {"measurement": "inhibitory effect on cell viability of H446 compared with etoposide (vp16)", "setting": "[1]; 3.06 μM", "result": "significantly better than etoposide (vp16)"}, {"measurement": "inhibitory effect on cell viability of H446 compared with etoposide (vp16)", "setting": "[1]; 7.64 μM", "result": "significantly better than etoposide (vp16)"}, {"measurement": "inhibitory effect on cell viability of H446 compared with etoposide (vp16)", "setting": "[1]; 15.28 μM", "result": "significantly better than etoposide (vp16)"}, {"measurement": "inhibition of growth of H446 cells (colony formation)", "setting": "[2]; 6 μmol/L", "result": "partially inhibited"}, {"measurement": "inhibition of growth of H446 cells (colony formation)", "setting": "[2]; 12 μmol/L", "result": "completely inhibited"}, {"measurement": "inhibitory effect on cell viability of Jurkat cell line compared with control drug", "setting": "[3]", "result": "superior to the control drug"}, {"measurement": "solubility in dichloromethane", "setting": "[4]; dichloromethane", "result": "soluble"}, {"measurement": "solubility in ethanol", "setting": "[4]; ethanol", "result": "slightly soluble"}, {"measurement": "solubility in ether", "setting": "[4]; ether", "result": "slightly soluble"}, {"measurement": "solubility in water", "setting": "[4]; water", "result": "insoluble"}]}
{"smiles": "CC[C@@]1(O)C(=O)OCc2c1cc1n(c2=O)Cc2cc3c(CN(C)C)c(O)ccc3nc2-1", "note": "[topotecan]", "values": [{"measurement": "dose at which dose-limiting toxicity (DLT) appeared", "setting": "[5]; [7]", "result": 4.5, "unit": "mg/m^2"}, {"measurement": "maximum tolerated dose (MTD)", "setting": "[5]; [7]", "result": 4, "unit": "mg/m^2"}, {"measurement": "II degree thrombocytopenia", "setting": "[5]; weekly oral", "result": 16.7, "unit": "%"}, {"measurement": "II-III degree anemia", "setting": "[5]; weekly oral", "result": 33.3, "unit": "%"}, {"measurement": "II-III degree fever", "setting": "[5]; weekly oral", "result": 44.4, "unit": "%"}, {"measurement": "II-III degree neutropenia", "setting": "[5]; weekly oral", "result": 27.8, "unit": "%"}, {"measurement": "median progression-free survival (PFS)", "setting": "[5]; weekly oral", "result": 2.3, "unit": "months"}, {"measurement": "median survival (OS)", "setting": "[5]; weekly oral", "result": 5.1, "unit": "months"}]}
{"smiles": "O=C(Nc1ccc([N+](=O)[O-])cc1Cl)c1cc(Cl)ccc1O", "note": "[N-(2-chloro-4-nitrophenyl)-5-chloro-2-hydroxybenzamide]", "values": [{"measurement": "side effects", "setting": "[6]", "result": "occasional side effects manifested by fatigue, dizziness, chest tightness, gastrointestinal disorders, fever and itching"}]}
